The values that follow come from ChEMBL document CHEMBL1201862, “PubChem BioAssay data set” (2004).

Active and inactive are the calls of the source.

The subject of one assay is Streptococcus. The assay can be described thus: Group A Streptococcus viability loss, dose response, counter-screen for streptokinase expression inhibitor project, luminescence, BacTiterGlo (AID 1915).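 Note: potency for reduction of bacterial viability or growth.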 The format is functional, organism-based.
Assay [1] concerns the target T1, COUP transcription factor 2 (Homo sapiens, UniProt P24468).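 Note: HEK293 cells transiently cotransfected with COUP-TFII expression vector and reporter; luciferase reporter luminescence driven by COUP-TFII from the pX2-168 reporter plasmid.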
T1 sequence (P24468 whole entry): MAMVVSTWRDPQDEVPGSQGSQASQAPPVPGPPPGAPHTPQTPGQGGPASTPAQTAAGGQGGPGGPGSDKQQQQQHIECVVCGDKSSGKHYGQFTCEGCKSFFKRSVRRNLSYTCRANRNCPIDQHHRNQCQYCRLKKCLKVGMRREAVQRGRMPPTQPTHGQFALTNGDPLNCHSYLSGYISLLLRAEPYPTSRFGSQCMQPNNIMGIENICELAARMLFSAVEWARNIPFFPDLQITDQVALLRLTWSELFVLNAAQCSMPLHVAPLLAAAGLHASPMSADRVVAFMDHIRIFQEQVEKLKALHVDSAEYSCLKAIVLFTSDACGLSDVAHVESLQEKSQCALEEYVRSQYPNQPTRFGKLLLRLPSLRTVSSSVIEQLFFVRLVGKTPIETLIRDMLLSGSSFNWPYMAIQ
The assay can be described thus: Luminescence-based cell-based high throughput dose response assay to identify inhibitors of COUP-TFII (NR2F2). The format is functional.

The target in the next assay is T2, Caspase-3 (Homo sapiens, UniProt P42574).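 Note: Dose-response selectivity test against caspase-3 for candidate inhibitors of sentrin-specific proteases (SENPs).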
T2 sequence (P42574 whole entry): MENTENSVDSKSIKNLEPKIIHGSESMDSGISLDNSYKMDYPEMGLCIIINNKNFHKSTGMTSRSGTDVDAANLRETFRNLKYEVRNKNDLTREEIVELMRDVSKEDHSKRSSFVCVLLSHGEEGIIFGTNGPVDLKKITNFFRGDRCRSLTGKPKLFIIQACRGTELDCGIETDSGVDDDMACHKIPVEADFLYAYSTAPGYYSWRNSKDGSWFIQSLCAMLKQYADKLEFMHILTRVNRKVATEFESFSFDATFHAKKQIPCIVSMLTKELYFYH
The format is functional.

In assay [2] the target is T3, Heat shock factor protein 1 (Mus musculus, UniProt P38532).
T3 sequence (P38532 whole entry): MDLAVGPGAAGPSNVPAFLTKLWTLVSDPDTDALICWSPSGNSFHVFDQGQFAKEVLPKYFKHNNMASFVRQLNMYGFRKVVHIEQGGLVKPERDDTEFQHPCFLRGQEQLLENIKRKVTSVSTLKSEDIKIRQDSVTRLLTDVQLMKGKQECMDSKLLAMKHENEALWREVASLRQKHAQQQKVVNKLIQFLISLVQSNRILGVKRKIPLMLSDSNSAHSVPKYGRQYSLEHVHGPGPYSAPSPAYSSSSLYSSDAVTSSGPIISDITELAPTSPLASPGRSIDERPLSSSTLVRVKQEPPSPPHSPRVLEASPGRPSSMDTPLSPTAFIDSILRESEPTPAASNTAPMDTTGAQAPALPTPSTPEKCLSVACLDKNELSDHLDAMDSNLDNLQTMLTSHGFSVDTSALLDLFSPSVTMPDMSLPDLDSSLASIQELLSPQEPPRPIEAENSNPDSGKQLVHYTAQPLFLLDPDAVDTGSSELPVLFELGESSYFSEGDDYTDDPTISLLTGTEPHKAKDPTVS
The assay can be described thus: inhibition of MG132-induced HSE-luciferase signal, confirmation, cell-based, NIH3T3, luminescence, dose retest (AID 2382).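 Note: NIH3T3 fibroblasts with HSF1-driven luciferase reporter stressed by proteasome inhibitor MG132; luminescence from HSF1-driven luciferase expression after 8 hours of MG132 stress.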 In kind it is functional.

A short description of a further assay: cells. In kind it is functional, cell-based.
Assay [3] is described as follows: inhibitors of intracellular T. cruzi replication, confirmation, NIH3T3 host cells, beta-gal luminescence (AID 2044).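 Note: intracellular parasites grown in NIH/3T3 mouse fibroblasts as host cells; luminescent beta-galactosidase reporter signal from transgenic T. cruzi replicating inside host cells; inhibitors lower the luminescence signal.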 In kind it is functional, cell-based.
Assay [4] is described as follows: HepG2 cell cytotoxicity, dose response, cytotoxicity control for Shn3 inhibitor project, CellTiter-Glo, cherry-picked (AID 624134). In kind it is functional, cell-based. Background: Cellular ATP, detected with luciferase, serves as a proxy for viable cell number.
Assay [5] deals with HEK293. The assay can be described thus: inhibitors of LMP1-driven NF-kB reporter, dose response, cell-based, HEK293, luciferase, cherry-pick (AID 588343). The format is functional. The settings on record: Homo sapiens.
The nature of assay [6]: control 3'UTR Renilla luciferase suppression, dose response, counter-screen for Shn3 inhibitor project, cell-based, Clone20-Shn3RL, cherry-picked (AID 624133). In kind it is functional. (In general: Counterscreens check selectivity or assay interference.)
Assay [7] relates to HEK293. The assay is described as follows: SAR Analysis of small molecule inhibitors of T-cell specific antigen receptor-induced NF-kB activation in a HEK-293T cell line using a luminescence assay - Set 2. [Related pubchem assays (depositor defined):AID435003, AID435012, AID489026]. The format is functional, cell-based. As to conditions: Homo sapiens.
For assay [8], the system named is BJ. The assay is described as follows: cytotoxicity toward BJ-TERT-LT-ST fibroblasts, dose response, cell-based, RAS-independent, luminescence (AID 1935).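 Note: BJ fibroblasts immortalized with TERT plus LT and ST oncogenes.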 In kind it is functional. The settings on record: Homo sapiens.
Assay [9] relates to BJ. The assay is described as follows: cytotoxicity toward BJ-TERT fibroblasts, dose response, cell-based, RAS-independent, luminescence (AID 1933). The format is functional. The settings on record: Homo sapiens.
Assay [10] can be described thus: NIH-3T3 fibroblast cytotoxicity, dose response, cytotoxicity control, cell-based, fluorescence, Alamar Blue, secondary assay (AID 2327).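 Note: NIH-3T3 mouse fibroblasts cultured with fluconazole at 8 µg/mL.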 In kind it is functional.
Assay [11] is described as follows: Shn3 3'UTR reporter inhibitors, dose response, cell-based, Clone20 osteoblasts, firefly luciferase, cherry-picked (AID 624132).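 Note: firefly luciferase luminescence from reporter carrying the Shn3 3'UTR in osteoblasts.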 The format is functional.
Assay [12] can be described thus: cytotoxicity toward DRD oncogenic fibroblasts, dose response, cell-based, non-viral oncogenic, luminescence (AID 1934). The format is functional. The settings on record: Homo sapiens.
Assay [13] is described as follows: cytotoxicity in HEK-293T cells, dose response, cytotoxicity control for TCR NF-kB inhibitor project, luminescence, T-cell screen hits (AID 489026).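 Note: cells exposed to compound about 14 hours before the viability readout.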 The format is functional, cell-based.
Another assay concerns Jurkat. The assay is described as follows: SAR Analysis of small molecule inhibitors of T-cell specific antigen receptor-induced NF-kB activation in a Jurkat cell line using a luminescence assay - Set 2. [Related pubchem assays (depositor defined):AID435003, AID435012, AID465]. In kind it is functional, cell-based. The settings on record: Homo sapiens.
Assay [14] relates to HEK293. The assay can be described thus: cytotoxicity in HEK293T NF-kB-Luc cells, SAR follow-up, cytotoxicity control for NF-kB activator project, cell-based, resazurin fluorescence (AID 493251). The settings on record: Homo sapiens. The format is functional. (In general: The colour change of resazurin is a common sign of viable cells or microbes.)
The next assay relates to INS1. The assay is described as follows: beta cell apoptosis inhibitors, cytokine rescue, dose response, luminescence, retest (AID 449756).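 Note: cell death triggered by IL-1 beta plus TNF-alpha plus IFN-gamma mixture; protective hits raise ATP signal compared with cytokine alone wells.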 In kind it is functional, cell-based. The settings on record: Rattus norvegicus.
In assay [15] the test system is BJ. The assay is described as follows: cells. In kind it is functional, cell-based. As to conditions: Homo sapiens.

Consider `CCOc1cccc(/C=N/NC(=S)Nc2ccccc2[N+](=O)[O-])c1O`, for which the EC50 (as a rule, the concentration that produces a half-maximal response) with Streptococcus was 4.18 µM (active); in assay [2] it was 3.56 µM (active). Besides, the IC50 (usually the concentration that inhibits the measured activity by half) is 5.05 µM (active) in [1] and 4.25 µM (active) on Caspase-3.
Consider `CCCCC(=O)NC(c1ccc(N(CC)CC)cc1)c1ccc2cccnc2c1O` (stereo not given), for which the EC50 in the assay “cells” was > 350 µM (not active); in assay [3], < 0.1 µM (active); in the assay with BJ [8], 1.79 µM (active); in the assay on BJ [9] it was 0.717 µM (active); in assay [10] it was 18.1 µM (inconclusive); in [12] it was 5.53 µM (active). Also, the EC50 in the assay with BJ [15] is 2.41 µM (active). The AC50 (usually the concentration at which the activity in the assay is half-maximal) in assay [4] was 1.2 µM (active); with HEK293 [5] it was 5.16 µM (active); in assay [6], 0.635 µM (active); in [11], 1.12 µM (active); with INS1, 0.38 µM (active). In addition, the IC50 in the assay on HEK293 [7] was 13 µM (active); in assay [13], > 80 µM (inactive); in the assay on Jurkat, 3.12 µM (active); in the assay on HEK293 [14] it was 35 µM (inactive).
